Data reported in patent US5399543A, “3-[4-(phenylmethoxy)phenyl]-1-substituted-6-haloalkyl-uracil herbicides” (FMC Corporation, priority 1993, dated 1995).

Key:
Velvetleaf [1] = assay: Postemergence herbicidal activity, velvetleaf; type: in vivo; settings: Abutilon theophrasti, post-emergence, 0.3 kg/ha, after 17-21 days, read-out: Postemergence herbicidal activity (% control), Velvetleaf
Description: (§1) The 3-[4-(phenylmethoxy)phenyl]-1-substituted-6-haloalkyluracil herbicides of this invention were tested for pre- and postemergence herbicidal activity using a variety of crops and weeds. The test plants included soybean (Glycine max var. Williams), field corn (Zea mays var. Agway 425X), wheat (Triticum aestivum var. Wheaton), morningglory (Ipomea lacunosa or Ipomea hederacea), velvetleaf (Abutilon theophrasti), green foxtail (Setaria viridis), Johnsongrass (Sorghum halepense), blackgrass (Aloepecurus myosuroides), common chickweed (Stellaria media), and common cocklebur (Xanthium pensylvanicum).
(§2) For preemergence testing, two disposable fiber flats (8 cm×15 cm×25 cm) for each rate of application of each candidate herbicide were filled to an approximate depth of 6.5 cm with steam-sterilized sandy loam soil. The soil was leveled and impressed with a template to provide five evenly spaced furrows 13 cm long and 0.5 cm deep in each flat. Seeds of soybean, wheat, corn, green foxtail, and johnsongrass were planted in the furrows of the first flat, and seeds of velvetleaf, morningglory, common chickweed, cocklebur, and blackgrass were planted in the furrows of the second flat. The five-row template was employed to firmly press the seeds into place. A topping soil of equal portions of sand and sandy loam soil was placed uniformly on top of each flat to a depth of approximately 0.5 cm. Flats for postemergence testing were prepared in the same manner except that they were planted 8-12 days prior to the preemergence flats and were placed in a greenhouse and watered, thus allowing the seeds to germinate and the foliage to develop.
(§3) In both pre- and postemergence tests, a stock solution of the candidate herbicide was prepared by dissolving 0.27 g of the compound in 20 mL of water/acetone (50/50) containing 0.5% v/v sorbitan monolaurate. For an application rate of 3000 g/ha of herbicide a 10 mL portion of the stock solution was diluted with water/acetone (50/50) to 45 mL.
(§4) The preemergence flats were initially subjected to a light water spray. The four flats were placed two by two along a conveyor belt (i.e., the two preemergence followed by the two postemergence flats). The conveyor belt fed under a spray nozzle mounted about ten inches above the postemergent foliage. The preemergent flats were elevated on the belt so that the soil surface was at the same level below the spray nozzle as the foliage canopy of the postemergent plants. The spray of herbicidal solution was commenced and once stabilized, the flats were passed under the spray at a speed to receive a coverage equivalent of 1000 L/ha. At this coverage the application rates are those shown in the above table for the individual herbicidal solutions. The preemergence flats were watered immediately thereafter, placed in the greenhouse and watered regularly at the soil surface. The postemergence flats were immediately placed in the greenhouse and not watered until 24 hours after treatment with the test solution. Thereafter they were regularly watered at ground level. After 17-21 days the plants were examined and the phytotoxicity data were recorded.
(§5) Herbicidal activity data at selected application rates are given for various compounds of this invention in Table 2 and Table 3. The test compounds are identified by numbers which correspond to those in Table 1.
(§6) Phytotoxicity data were taken as percent control. Percent control was determined by a method similar to the 0 to 100 rating system disclosed in "Research Methods in Weed Science," 2nd ed., B. Truelove, Ed.; Southern Weed Science Society; Auburn University, Auburn, Ala., 1977.

Corn [2] = assay: Postemergence herbicidal activity, corn; type: in vivo, Zea mays var. Agway 425X; settings: Zea mays, post-emergence, 0.3 kg/ha, after 17-21 days, read-out: Postemergence herbicidal activity (% control), Corn
Description: as §1, §2, §3, §4, §5, §6

Soybean [3] = assay: Postemergence herbicidal activity, soybean; type: in vivo, Glycine max var. Williams; settings: Glycine max, post-emergence, 0.3 kg/ha, after 17-21 days, read-out: Postemergence herbicidal activity (% control), Soybean
Description: as §1, §2, §3, §4, §5, §6

Velvetleaf [4] = assay: Preemergence herbicidal activity, velvetleaf; type: in vivo; settings: Abutilon theophrasti, pre-emergence, 0.3 kg/ha, after 17-21 days, read-out: Preemergence herbicidal activity (% control), Velvetleaf
Description: as §1, §2, §3, §4, §5, §6

Cocklebur [5] = assay: Preemergence herbicidal activity, cocklebur; type: in vivo, Xanthium pensylvanicum; settings: Xanthium strumarium, pre-emergence, 0.3 kg/ha, after 17-21 days, read-out: Preemergence herbicidal activity (% control), Cocklebur
Description: as §1, §2, §3, §4, §5, §6

Chickweed [6] = assay: Preemergence herbicidal activity, chickweed; type: in vivo; settings: Stellaria media, pre-emergence, 0.3 kg/ha, after 17-21 days, read-out: Preemergence herbicidal activity (% control), Chickweed
Description: as §1, §2, §3, §4, §5, §6

Morningglory [7] = assay: Postemergence herbicidal activity, morningglory; type: in vivo, Ipomea lacunosa or Ipomea hederacea; settings: Ipomoea, post-emergence, 0.3 kg/ha, after 17-21 days, read-out: Postemergence herbicidal activity (% control), Morningglory
Description: as §1, §2, §3, §4, §5, §6

Soybean [8] = assay: Preemergence herbicidal activity, soybean; type: in vivo, Glycine max var. Williams; settings: Glycine max, pre-emergence, 0.3 kg/ha, after 17-21 days, read-out: Preemergence herbicidal activity (% control), Soybean
Description: as §1, §2, §3, §4, §5, §6

Morningglory [9] = assay: Preemergence herbicidal activity, morningglory; type: in vivo, Ipomea lacunosa or Ipomea hederacea; settings: Ipomoea, pre-emergence, 0.3 kg/ha, after 17-21 days, read-out: Preemergence herbicidal activity (% control), Morningglory
Description: as §1, §2, §3, §4, §5, §6

Wheat [10] = assay: Postemergence herbicidal activity, wheat; type: in vivo, Triticum aestivum var. Wheaton; settings: Triticum aestivum, post-emergence, 0.3 kg/ha, after 17-21 days, read-out: Postemergence herbicidal activity (% control), Wheat
Description: as §1, §2, §3, §4, §5, §6

Blackgrass [11] = assay: Postemergence herbicidal activity, blackgrass; type: in vivo, Aloepecurus myosuroides; settings: Alopecurus myosuroides, post-emergence, 0.3 kg/ha, after 17-21 days, read-out: Postemergence herbicidal activity (% control), Blackgrass
Description: as §1, §2, §3, §4, §5, §6

Green foxtail [12] = assay: Preemergence herbicidal activity, green foxtail; type: in vivo; settings: Setaria viridis, pre-emergence, 0.3 kg/ha, after 17-21 days, read-out: Preemergence herbicidal activity (% control), Green foxtail
Description: as §1, §2, §3, §4, §5, §6

Green foxtail [13] = assay: Postemergence herbicidal activity, green foxtail; type: in vivo; settings: Setaria viridis, post-emergence, 0.3 kg/ha, after 17-21 days, read-out: Postemergence herbicidal activity (% control), Green foxtail
Description: as §1, §2, §3, §4, §5, §6

Corn [14] = assay: Preemergence herbicidal activity, corn; type: in vivo, Zea mays var. Agway 425X; settings: Zea mays, pre-emergence, 0.3 kg/ha, after 17-21 days, read-out: Preemergence herbicidal activity (% control), Corn
Description: as §1, §2, §3, §4, §5, §6

Cocklebur [15] = assay: Postemergence herbicidal activity, cocklebur; type: in vivo, Xanthium pensylvanicum; settings: Xanthium strumarium, post-emergence, 0.3 kg/ha, after 17-21 days, read-out: Postemergence herbicidal activity (% control), Cocklebur
Description: as §1, §2, §3, §4, §5, §6

Johnsongrass [16] = assay: Preemergence herbicidal activity, johnsongrass; type: in vivo; settings: Sorghum halepense, pre-emergence, 0.3 kg/ha, after 17-21 days, read-out: Preemergence herbicidal activity (% control), Johnsongrass
Description: as §1, §2, §3, §4, §5, §6

Wheat [17] = assay: Preemergence herbicidal activity, wheat; type: in vivo, Triticum aestivum var. Wheaton; settings: Triticum aestivum, pre-emergence, 0.3 kg/ha, after 17-21 days, read-out: Preemergence herbicidal activity (% control), Wheat
Description: as §1, §2, §3, §4, §5, §6

Johnsongrass [18] = assay: Postemergence herbicidal activity, johnsongrass; type: in vivo; settings: Sorghum halepense, post-emergence, 0.3 kg/ha, after 17-21 days, read-out: Postemergence herbicidal activity (% control), Johnsongrass
Description: as §1, §2, §3, §4, §5, §6

Chickweed [19] = assay: Postemergence herbicidal activity, chickweed; type: in vivo; settings: Stellaria media, post-emergence, 0.3 kg/ha, after 17-21 days, read-out: Postemergence herbicidal activity (% control), Chickweed
Description: as §1, §2, §3, §4, §5, §6

Blackgrass [20] = assay: Preemergence herbicidal activity, blackgrass; type: in vivo, Aloepecurus myosuroides; settings: Alopecurus myosuroides, pre-emergence, 0.3 kg/ha, after 17-21 days, read-out: Preemergence herbicidal activity (% control), Blackgrass
Description: as §1, §2, §3, §4, §5, §6

| SMILES | activity at 300 g/ha (Velvetleaf [1]) | activity at 300 g/ha (Corn [2]) | activity at 300 g/ha (Soybean [3]) | activity at 300 g/ha (Velvetleaf [4]) | activity at 300 g/ha (Cocklebur [5]) | activity at 300 g/ha (Chickweed [6]) | activity at 300 g/ha (Morningglory [7]) | activity at 300 g/ha (Soybean [8]) | activity at 300 g/ha (Morningglory [9]) | activity at 300 g/ha (Wheat [10]) | activity at 300 g/ha (Blackgrass [11]) | activity at 300 g/ha (Green foxtail [12]) | activity at 300 g/ha (Green foxtail [13]) | activity at 300 g/ha (Corn [14]) | activity at 300 g/ha (Cocklebur [15]) | activity at 300 g/ha (Johnsongrass [16]) | activity at 300 g/ha (Wheat [17]) | activity at 300 g/ha (Johnsongrass [18]) | activity at 300 g/ha (Chickweed [19]) | activity at 300 g/ha (Blackgrass [20]) |
| --- | --- | --- | --- | --- | --- | --- | --- | --- | --- | --- | --- | --- | --- | --- | --- | --- | --- | --- | --- | --- |
| Cn1c(C(F)(F)F)cc(=O)n(-c2ccc(OCc3ccc(Cl)cc3)cc2F)c1=O [Compound 10, 3-[4-(4-Chlorophenylmethoxy)-2-fluorophenyl]-1-methyl-6-trifluoromethyluracil] | 100% | 50% | 95% | 100% | 100% | 100% | 100% | 100% | 100% | 10% | 40% | 100% | 100% | 20% | 100% | 95% | 20% | 95% | 100% | 50% |
| Cn1c(C(F)(F)F)cc(=O)n(-c2ccc(OCc3ccc(F)cc3)cc2F)c1=O [Compound 11] | 100% | 70% | 80% | 100% | 90% | 100% | 100% | 85% | 100% | 20% | 0% | 100% | 100% | 85% | 100% | 95% | 20% | 100% | 80% | 20% |
| Cc1cc(OCc2ccccc2)ccc1-n1c(=O)cc(C(F)(F)F)n(C)c1=O [Compound 12] | 30% | 0% | 20% | 60% | 0% | 0% | 20% | 10% | 10% | 0% | 0% | 80% | 50% | 40% | 0% | 60% | 0% | 0% | 0% | 0% |
| Cc1cc(OCc2ccc(Cl)cc2)ccc1-n1c(=O)cc(C(F)(F)F)n(C)c1=O [Compound 13] | 100% | 40% | 30% | 100% | 0% | 10% | 100% | 40% | 60% | 0% | 20% | 100% | 80% | 30% | 90% | 90% | 0% | 20% | 30% | 30% |
| Cn1c(C(F)(F)F)cc(=O)n(-c2ccc(OCc3ccc(C(F)(F)F)cc3)cc2)c1=O [Compound 22] | 40% | 20% | 50% | 100% | 50% | 100% | 95% | 90% | 90% | 20% | 30% | 100% | 90% | 30% | 40% | 70% | 0% | 80% | 15% | 15% |
